From patent US9546164B2 (GENENTECH, INC., priority 2013, dated 2017) come the findings set out here.

Structures can show the parent of a compound that is named as a salt.

Data set [1] addresses NaV1.7 (Homo sapiens (Human), UniProt Q15858). Put plainly: Patch voltage clamp electrophysiological assay (EP), NaV1.7. Particulars: HEK-293 cells stably expressing human NaV1.7 with β1 subunit, whole-cell patch clamp, holding −60 mV. The class given is cell-based. The protocol: Electrophysiological Assay (EP) (In vitro Assay)
Control sodium currents were measured in 0.5% DMSO.
Series resistance compensation was applied (60-80%).

Data set [2] concerns the target hNav1.7 (Homo sapiens (Human), UniProt Q15858). The experiment in a line: Tritiated sulfonamide competitive binding to membranes from cells expressing hNav1.7 and the β1 subunit.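 Also: Filter-bound radioactivity counted by liquid scintillation, nonspecific binding defined with excess unlabelled ligand, IC50 fitted to percent inhibition of specific binding.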 Particulars: read-out: Ligand Binding Assay; 100 pM [3H]compound, membranes with hNav1.7 and β1 subunit, 18 h, room temperature.
In data set [3] the target is NaV1.5 (Homo sapiens (Human), UniProt Q14524). Put plainly: Patch voltage clamp electrophysiological assay (EP), NaV1.5. Particulars: read-out: NaV1.5 EP; HEK-293 cells stably expressing human NaV1.5 with β1 subunit, whole-cell patch clamp, holding −60 mV. For orientation: Patch clamp records ionic current or voltage across a cell membrane.
NaV1.5, sequence (Q14524 whole entry): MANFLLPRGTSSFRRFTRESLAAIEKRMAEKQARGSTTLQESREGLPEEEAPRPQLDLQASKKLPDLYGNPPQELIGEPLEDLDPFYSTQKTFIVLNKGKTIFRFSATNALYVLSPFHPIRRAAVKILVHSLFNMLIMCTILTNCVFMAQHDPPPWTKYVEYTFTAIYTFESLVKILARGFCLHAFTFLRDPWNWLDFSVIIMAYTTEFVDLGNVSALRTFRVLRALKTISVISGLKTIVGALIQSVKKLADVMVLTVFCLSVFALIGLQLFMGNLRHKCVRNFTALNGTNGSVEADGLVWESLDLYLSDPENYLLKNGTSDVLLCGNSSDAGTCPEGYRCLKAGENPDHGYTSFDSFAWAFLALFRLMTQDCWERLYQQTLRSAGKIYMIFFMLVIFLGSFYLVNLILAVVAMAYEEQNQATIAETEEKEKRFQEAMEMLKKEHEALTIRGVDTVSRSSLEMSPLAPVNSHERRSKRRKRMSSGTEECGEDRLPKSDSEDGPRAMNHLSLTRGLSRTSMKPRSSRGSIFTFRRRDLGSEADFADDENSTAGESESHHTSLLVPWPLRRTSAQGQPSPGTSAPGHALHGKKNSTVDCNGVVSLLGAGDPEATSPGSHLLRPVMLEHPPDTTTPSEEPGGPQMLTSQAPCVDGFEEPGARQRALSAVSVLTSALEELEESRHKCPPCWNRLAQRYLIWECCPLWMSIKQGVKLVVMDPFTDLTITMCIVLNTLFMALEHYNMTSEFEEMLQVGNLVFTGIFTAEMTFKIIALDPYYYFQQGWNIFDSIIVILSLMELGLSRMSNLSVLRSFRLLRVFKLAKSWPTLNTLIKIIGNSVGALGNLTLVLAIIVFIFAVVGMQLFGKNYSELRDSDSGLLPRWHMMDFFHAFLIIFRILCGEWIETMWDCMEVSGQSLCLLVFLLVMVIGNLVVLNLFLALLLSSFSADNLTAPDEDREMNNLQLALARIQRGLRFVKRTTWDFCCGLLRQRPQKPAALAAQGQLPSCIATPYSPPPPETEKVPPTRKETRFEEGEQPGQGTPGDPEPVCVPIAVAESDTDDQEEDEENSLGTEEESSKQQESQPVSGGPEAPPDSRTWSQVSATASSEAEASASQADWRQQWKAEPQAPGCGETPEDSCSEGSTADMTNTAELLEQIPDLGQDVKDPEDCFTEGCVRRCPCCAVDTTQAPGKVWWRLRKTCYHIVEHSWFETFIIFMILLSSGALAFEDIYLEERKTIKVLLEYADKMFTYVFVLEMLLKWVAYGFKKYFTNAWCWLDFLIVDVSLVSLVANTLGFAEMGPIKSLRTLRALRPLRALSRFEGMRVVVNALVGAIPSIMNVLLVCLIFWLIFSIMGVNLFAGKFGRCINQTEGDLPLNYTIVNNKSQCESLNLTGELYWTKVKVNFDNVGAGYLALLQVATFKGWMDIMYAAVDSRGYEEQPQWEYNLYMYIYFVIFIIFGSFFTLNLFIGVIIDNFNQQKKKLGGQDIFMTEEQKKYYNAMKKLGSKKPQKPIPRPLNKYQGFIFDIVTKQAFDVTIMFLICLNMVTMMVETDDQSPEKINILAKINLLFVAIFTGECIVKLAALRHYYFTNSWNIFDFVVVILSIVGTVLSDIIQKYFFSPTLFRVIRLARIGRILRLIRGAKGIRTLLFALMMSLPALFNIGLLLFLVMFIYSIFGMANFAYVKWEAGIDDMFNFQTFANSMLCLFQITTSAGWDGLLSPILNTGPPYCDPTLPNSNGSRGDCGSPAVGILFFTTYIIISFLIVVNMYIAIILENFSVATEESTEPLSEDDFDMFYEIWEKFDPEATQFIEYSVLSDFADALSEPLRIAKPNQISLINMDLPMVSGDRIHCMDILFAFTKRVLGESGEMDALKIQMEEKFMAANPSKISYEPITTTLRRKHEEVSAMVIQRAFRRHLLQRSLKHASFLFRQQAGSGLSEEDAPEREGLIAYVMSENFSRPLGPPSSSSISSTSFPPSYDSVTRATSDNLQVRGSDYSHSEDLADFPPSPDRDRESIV
Procedure: The following patch voltage clamp electrophysiology studies were performed on representative compounds of the invention using human embryonic kidney cells (HEK), permanently transfected with an expression vector containing the full-length cDNA coding for the desired human sodium channel α-subunit, grown in culture media containing 10% FBS, 1% PSG, and 0.5 mg/mL G418 at 37° C. with 5% CO2. […] The β1 subunit was coexpressed in both the NaV1.7 and NaV1.5 cell lines.
Sodium currents were measured rising the patch clamp technique in the whole-cell configuration using either a PatchXpress automated voltage clamp or manually using an Axopatch 200B (Axon Instruments) or Model 2400 (A-M systems) amplifier. […] The pipette was filled with a solution comprised of: 5 mM NaCl, 10 mM CsCl, 120 mM CsF, 0.1 mM CaCl2, 2 mM MgCl2, 10 mM HEPES, 10 mM EGTA; and adjusted to pH 7.2 with CsOH. The external solution had the following composition: 140 mM NaCl, 5 mM KCl, 2 mM CaCl2, 1 mM MgCl2, 10 mM HEPES; and adjusted to pH 7.4 with NaOH. In some studies, the external sodium was reduced by equimolar replacement with choline. Osmolality in the CsF internal and NaCl external solutions was adjusted to 300 mOsm/kg and 310 mOsm/kg with glucose, respectively. All recordings were performed at ambient temperature in a bath chamber with a volume of 150 μL. Control sodium currents were measured in 0.5% DMSO. Controls and representative compounds of the invention were applied to the recording chamber through a 4-pinch or 8-pinch valve bath perfusion system manufactured by ALA Scientific Instruments.
Currents were recorded at 40 kHz sampling frequency, filtered at 5 Hz, and stored using a Digidata-1322A analogue/digital interface with the pClamp software (Axon instruments). Series resistance compensation was applied (60-80%). […] All statistics in this study are given as mean±SD.
The membrane potential was maintained at a voltage where reactivation of the channel is complete (which was −60 mV for both NaV1.7 and NaV1.5). The voltage is then stepped back to a very negative (Vhold=150 mV) voltage for 20 ms and then a test poise is applied to quantify the compound block. The 20 ms brief repolarization was long enough for compound-free channels to completely recover from fast inactivation, but the compound-bound channels recovered more slowly such that negligible recovery could occur during this interval. The percent decrease in sodium current following wash-on of compound was taken as the percent block of sodium channels.

NaV1.7, sequence (Q15858 other isoform, or with tags, fused parts or gaps): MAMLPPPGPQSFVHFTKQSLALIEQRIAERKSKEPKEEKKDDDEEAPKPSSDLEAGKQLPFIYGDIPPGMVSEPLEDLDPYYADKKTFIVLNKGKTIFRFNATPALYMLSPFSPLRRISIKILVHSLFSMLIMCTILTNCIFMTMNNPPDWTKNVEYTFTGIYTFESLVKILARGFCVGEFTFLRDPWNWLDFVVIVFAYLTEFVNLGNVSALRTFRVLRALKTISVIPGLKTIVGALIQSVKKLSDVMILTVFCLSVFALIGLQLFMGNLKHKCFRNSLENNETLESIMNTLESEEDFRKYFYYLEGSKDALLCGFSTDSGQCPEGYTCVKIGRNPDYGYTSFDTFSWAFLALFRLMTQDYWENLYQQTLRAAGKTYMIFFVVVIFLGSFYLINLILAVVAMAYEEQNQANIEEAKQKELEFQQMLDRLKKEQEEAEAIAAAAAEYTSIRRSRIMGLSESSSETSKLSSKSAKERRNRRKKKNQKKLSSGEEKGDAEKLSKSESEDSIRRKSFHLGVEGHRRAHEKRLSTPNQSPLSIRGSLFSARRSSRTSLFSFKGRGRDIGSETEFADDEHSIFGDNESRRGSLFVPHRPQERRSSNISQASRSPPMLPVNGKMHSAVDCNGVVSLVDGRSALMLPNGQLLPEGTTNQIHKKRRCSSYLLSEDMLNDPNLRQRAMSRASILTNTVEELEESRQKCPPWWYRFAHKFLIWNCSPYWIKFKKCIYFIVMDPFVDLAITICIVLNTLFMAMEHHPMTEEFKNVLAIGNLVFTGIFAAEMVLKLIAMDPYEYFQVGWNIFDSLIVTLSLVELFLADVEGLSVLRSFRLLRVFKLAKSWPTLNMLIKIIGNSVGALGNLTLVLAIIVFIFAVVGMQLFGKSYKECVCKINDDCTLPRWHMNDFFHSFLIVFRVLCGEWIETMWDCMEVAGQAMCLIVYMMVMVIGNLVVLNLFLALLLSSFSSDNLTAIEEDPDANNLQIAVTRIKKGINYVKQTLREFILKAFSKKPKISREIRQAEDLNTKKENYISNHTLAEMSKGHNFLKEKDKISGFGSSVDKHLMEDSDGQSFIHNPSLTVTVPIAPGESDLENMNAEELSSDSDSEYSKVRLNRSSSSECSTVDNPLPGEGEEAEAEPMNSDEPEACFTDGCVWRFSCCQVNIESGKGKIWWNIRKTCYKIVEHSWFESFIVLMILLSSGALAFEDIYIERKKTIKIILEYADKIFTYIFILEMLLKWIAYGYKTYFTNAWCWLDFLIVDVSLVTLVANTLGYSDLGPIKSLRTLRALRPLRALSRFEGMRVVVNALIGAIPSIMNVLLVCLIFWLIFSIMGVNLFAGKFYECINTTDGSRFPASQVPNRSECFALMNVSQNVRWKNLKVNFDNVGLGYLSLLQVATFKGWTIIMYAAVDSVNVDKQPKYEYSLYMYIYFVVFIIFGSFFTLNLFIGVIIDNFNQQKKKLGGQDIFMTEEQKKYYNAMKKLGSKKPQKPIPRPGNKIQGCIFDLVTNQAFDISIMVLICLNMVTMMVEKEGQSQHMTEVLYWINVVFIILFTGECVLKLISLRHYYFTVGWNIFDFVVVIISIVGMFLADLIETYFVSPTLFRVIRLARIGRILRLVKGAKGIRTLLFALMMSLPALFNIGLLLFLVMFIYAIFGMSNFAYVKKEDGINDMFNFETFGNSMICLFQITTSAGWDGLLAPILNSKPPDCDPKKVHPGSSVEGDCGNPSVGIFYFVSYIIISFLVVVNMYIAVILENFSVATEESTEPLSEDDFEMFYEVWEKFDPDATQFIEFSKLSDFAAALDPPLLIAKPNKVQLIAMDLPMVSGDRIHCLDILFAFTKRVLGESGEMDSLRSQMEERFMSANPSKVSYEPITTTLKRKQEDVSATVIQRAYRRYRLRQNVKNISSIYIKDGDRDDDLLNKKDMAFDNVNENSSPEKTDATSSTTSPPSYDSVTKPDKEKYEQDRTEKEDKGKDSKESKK
NaV1.7, sequence (Q07699 19-218 partner): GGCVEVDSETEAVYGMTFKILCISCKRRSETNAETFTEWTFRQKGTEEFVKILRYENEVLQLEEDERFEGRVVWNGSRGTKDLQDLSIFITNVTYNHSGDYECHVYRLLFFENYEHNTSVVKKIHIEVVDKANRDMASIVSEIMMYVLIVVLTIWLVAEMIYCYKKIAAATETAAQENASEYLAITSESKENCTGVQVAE
hNav1.7, sequence (Q15858 other isoform, or with tags, fused parts or gaps): as the sequence (Q15858 other isoform, or with tags, fused parts or gaps) above
hNav1.7, sequence (Q07699 19-218 partner): as the sequence (Q07699 19-218 partner) above

On to `CS(=O)(=O)NC(=O)c1cc(C2CC2)c(OCC2(F)CCN(Cc3cc(C(F)(F)F)cc(Cl)c3F)CC2)cc1F` [Example 346, 4-((1-(3-chloro-2-fluoro-5-(trifluoromethyl)benzyl)-4-fluoropiperidin-4-yl)methoxy)-5-cyclopropyl-2-fluoro-N-(methylsulfonyl)benzamide trifluoroacetic acid salt], for which the figures for the IC50 in data set [1], in data set [2] and in data set [3] were 2.2 nM, 4.4 nM and 682000 nM, respectively.
In the same order, the values of `COC[C@H](c1cc(Cl)cc(Cl)c1)N1CCC(COc2cc(F)c(C(=O)NS(=O)(=O)C3CC3)cc2C2CC2)CC1` (single isomer, unassigned) [Example 165] are 2.4 nM, 2.3 nM and 49 nM.
For `CCS(=O)(=O)NC(=O)c1cc(C2CC2)c(OCC2CCN([C@@H](c3cc(Cl)cc(Cl)c3)C(C)(C)OC)CC2)cc1F` (single isomer, unassigned) [Example 208], the IC50 in data set [1] came to 3 nM; in data set [2], 1.6 nM; in data set [3], 13 nM.
With `O=C(NS(=O)(=O)C1CC1)c1cc(C2CC2)c(OCC2CCN(Cc3cc(Cl)cc(Cl)c3)CC2)cc1F` [Example 259, 5-Cyclopropyl-N-(cyclopropylsulfonyl)-4-((1-(3,5-dichlorobenzyl)piperidin-4-yl)methoxy)-2-fluorobenzamide], the IC50 in data set [1] is 23 nM; in data set [2] it was 2.2 nM; in data set [3], 110 nM.
The like results for `CS(=O)(=O)NC(=O)c1cc(C2CC2)c(O[C@@H]2CCCN(Cc3ccc(F)cc3Cl)C2)cc1F` [Example 312, (R)-4-((1-(2-chloro-4-fluorobenzyl)piperidin-3-yl)oxy)-5-cyclopropyl-2-fluoro-N-(methylsulfonyl)benzamide] were, in that order, less than 1 nM, 2.2 nM and 310 nM.
The like results for `C[C@@H](c1cc(Cl)cc(Cl)c1)N1CCC(COc2cc(F)c(C(=O)NS(C)(=O)=O)cc2C2CC2)CC1` [Example 100, (S)-5-Cyclopropyl-4-((1-(1-(3,5-dichlorophenyl)ethyl)piperidin-4-yl)methoxy)-2-fluoro-N-(methylsulfonyl)benzamide] were, in that order, 5.8 nM, 4.19 nM and 552 nM.
In the same order, the values of `C[C@H](c1ccc(Cl)c(C2CC2)n1)N1CCC[C@@H](Oc2cc(F)c(C(=O)NS(C)(=O)=O)cc2C2CC2)C1` (single isomer, unassigned) [Example 309] are 3 nM, 2.7 nM and 380 nM.
In the case of `CCS(=O)(=O)NC(=O)c1cc(C2CC2)c(OCC2CCN([C@H](COC)c3cc(Cl)cc(Cl)c3)CC2)cc1F` (single isomer, unassigned) [Example 169], the figures for the IC50 in data set [1], in data set [2] and in data set [3] were 3 nM, 6.3 nM and 280 nM, respectively.
In the same order, the values of `O=C(NS(=O)(=O)C1CC1)c1cc(C2CC2)c(CN2CCC(Oc3ncc(C4CC4)cc3Cl)CC2)cc1F` [Example 474, 4-((4-((3-chloro-5-cyclopropylpyridin-2-yl)oxy)piperidin-1-yl)methyl)-5-cyclopropyl-N-(cyclopropylsulfonyl)-2-fluorobenzamide hydrochloride] are less than 3 nM, 5.6 nM and 449 nM.
In the case of `CC(C)Oc1ncc(CN2CCC(COc3cc(F)c(C(=O)NS(C)(=O)=O)cc3C3CC3)CC2)cc1Cl` [Example 217, 4-((1-((5-Chloro-6-isopropoxypyridin-3-yl)methyl)piperidin-4-yl)methoxy)-5-cyclopropyl-2-fluoro-N-(methylsulfonyl)benzamide], the IC50 is 2.5 nM in data set [1] and 190 nM in data set [3].
Take `CS(=O)(=O)NC(=O)c1cc(C2CC2)c(OCC2CCN(Cc3cc(F)cc(C(F)(F)F)c3)CC2)cc1F` [Example 228, 5-Cyclopropyl-2-fluoro-4-((1-(3-fluoro-5-(trifluoromethyl)benzyl)piperidin-4-yl)methoxy)-N-(methylsulfonyl)benzamide]: the figures for the IC50 in data set [1], in data set [2] and in data set [3] were 31 nM, 5.1 nM and 4100 nM, respectively.
